Measured values: ChEMBL document CHEMBL3045384, “Evaluating commercially available rodenticide baits for invasive Gambian giant pouched rats (Cricetomys gambianus)” (2010)

What was measured:
Type in all cases: functional
[1] = system: Cricetomys gambianus; assay: Rodenticidal activity against invasive Cricetomys gambianus (Gambian giant pouched rat) assessed as mean bait consumed using 0.0005% compound pellets bait by 7 day multiple-choice feeding trail method
[2] = system: Cricetomys gambianus; assay: Rodenticidal activity against invasive Cricetomys gambianus (Gambian giant pouched rat) assessed as proportion of bait consumed using 0.0005% compound pellets bait by 7 day multiple-choice feeding trail method
[3] = system: Cricetomys gambianus; assay: Rodenticidal activity against invasive Cricetomys gambianus (Gambian giant pouched rat) assessed as rodent body weight using 0.0005% compound pellets bait by 7 day multiple-choice feeding trail method (reference value: 1.44 kg)
[4] = system: Cricetomys gambianus; assay: Rodenticidal activity against invasive Cricetomys gambianus (Gambian giant pouched rat) assessed as mean duration to death using 0.0005% compound pellets bait by 7 day multiple-choice feeding trail method
[5] = system: Cricetomys gambianus; assay: Rodenticidal activity against invasive Cricetomys gambianus (Gambian giant pouched rat) assessed as rodent mortality using 0.0005% compound pellets bait by 7 day multiple-choice feeding trail method
[6] = system: Cricetomys gambianus; assay: Rodenticidal activity against invasive Cricetomys gambianus (Gambian giant pouched rat) assessed as rodent mortality using 0.0025% compound pellets bait by 7 day multiple-choice feeding trail method
[7] = system: Cricetomys gambianus; assay: Rodenticidal activity against invasive Cricetomys gambianus (Gambian giant pouched rat) assessed as rodent body weight using 0.0025% compound pellets bait by 7 day multiple-choice feeding trail method (reference value: 1.44 kg)
[8] = system: Cricetomys gambianus; assay: Rodenticidal activity against invasive Cricetomys gambianus (Gambian giant pouched rat) assessed as mean duration to death using 0.0025% compound pellets bait by 7 day multiple-choice feeding trail method
[9] = system: Cricetomys gambianus; assay: Rodenticidal activity against invasive Cricetomys gambianus (Gambian giant pouched rat) assessed as mean bait consumed using 0.0025% compound pellets bait by 7 day multiple-choice feeding trail method
[10] = system: Cricetomys gambianus; assay: Rodenticidal activity against invasive Cricetomys gambianus (Gambian giant pouched rat) assessed as proportion of bait consumed using 0.0025% compound pellets bait by 7 day multiple-choice feeding trail method
[11] = system: Cricetomys gambianus; assay: Rodenticidal activity against invasive Cricetomys gambianus (Gambian giant pouched rat) assessed as rodent mortality using 0.005% compound blocks bait by 7 day multiple-choice feeding trail method
[12] = system: Cricetomys gambianus; assay: Rodenticidal activity against invasive Cricetomys gambianus (Gambian giant pouched rat) assessed as proportion of bait consumed using 0.005% compound pellets bait by 7 day multiple-choice feeding trail method
[13] = system: Cricetomys gambianus; assay: Rodenticidal activity against invasive Cricetomys gambianus (Gambian giant pouched rat) assessed as rodent body weight using 0.005% compound pellets bait by 7 day multiple-choice feeding trail method (reference value: 1.44 kg)
[14] = system: Cricetomys gambianus; assay: Rodenticidal activity against invasive Cricetomys gambianus (Gambian giant pouched rat) assessed as rodent mortality using 0.005% compound pellets bait by 7 day multiple-choice feeding trail method
[15] = system: Cricetomys gambianus; assay: Rodenticidal activity against invasive Cricetomys gambianus (Gambian giant pouched rat) assessed as mean duration to death using 0.005% compound blocks bait by 7 day multiple-choice feeding trail method
[16] = system: Cricetomys gambianus; assay: Rodenticidal activity against invasive Cricetomys gambianus (Gambian giant pouched rat) assessed as rodent body weight using 0.005% compound blocks bait by 7 day multiple-choice feeding trail method (reference value: 1.44 kg)
[17] = system: Cricetomys gambianus; assay: Rodenticidal activity against invasive Cricetomys gambianus (Gambian giant pouched rat) assessed as mean bait consumed using 0.005% compound pellets bait by 7 day multiple-choice feeding trail method
[18] = system: Cricetomys gambianus; assay: Rodenticidal activity against invasive Cricetomys gambianus (Gambian giant pouched rat) assessed as mean bait consumed using 0.005% compound blocks bait by 7 day multiple-choice feeding trail method
[19] = system: Cricetomys gambianus; assay: Rodenticidal activity against invasive Cricetomys gambianus (Gambian giant pouched rat) assessed as proportion of bait consumed using 0.005% compound blocks bait by 7 day multiple-choice feeding trail method
[20] = system: Cricetomys gambianus; assay: Rodenticidal activity against invasive Cricetomys gambianus (Gambian giant pouched rat) assessed as rodent mortality using 0.01% compound blocks bait by 7 day multiple-choice feeding trail method
[21] = system: Cricetomys gambianus; assay: Rodenticidal activity against invasive Cricetomys gambianus (Gambian giant pouched rat) assessed as mean bait consumed using 0.01% compound blocks bait by 7 day multiple-choice feeding trail method
[22] = system: Cricetomys gambianus; assay: Rodenticidal activity against invasive Cricetomys gambianus (Gambian giant pouched rat) assessed as mean duration to death using 0.01% compound blocks bait by 7 day multiple-choice feeding trail method
[23] = system: Cricetomys gambianus; assay: Rodenticidal activity against invasive Cricetomys gambianus (Gambian giant pouched rat) assessed as rodent body weight using 0.01% compound blocks bait by 7 day multiple-choice feeding trail method (reference value: 1.44 kg)
[24] = system: Cricetomys gambianus; assay: Rodenticidal activity against invasive Cricetomys gambianus (Gambian giant pouched rat) assessed as proportion of bait consumed using 0.01% compound blocks bait by 7 day multiple-choice feeding trail method

O=C1c2ccccc2C(=O)C1C(=O)C(c1ccccc1)c1ccc(Cl)cc1 (centres undefined) [CHLOROPHACINONE]
Activity [1]: 89.7 g | Activity [2]: 0.3% | Activity [3]: 1.47 kg | Time [4]: 11.7 days | Activity [5]: 50%

O=c1oc2ccccc2c(O)c1C1CC(c2ccc(-c3ccc(Br)cc3)cc2)Cc2ccccc21 (centres undefined) [BRODIFACOUM]
Activity [6]: 100% | Activity [7]: 1.37 kg | Time [8]: 12.2 days | Activity [9]: 89 g | Activity [10]: 0.39%

O=C1c2ccccc2C(=O)C1C(=O)C(c1ccccc1)c1ccccc1 [DIPHENADIONE]
Activity [11]: 17% | Activity [12]: 0.35% | Activity [13]: 1.47 kg | Activity [14]: 0% | Time [15]: 12 days | Activity [16]: 1.5 kg | Activity [17]: 106.2 g | Activity [18]: 92.6 g | Activity [19]: 0.3%

CN(c1c(Br)cc(Br)cc1Br)c1c([N+](=O)[O-])cc([N+](=O)[O-])cc1C(F)(F)F [BROMETHALIN]
Activity [20]: 20% | Activity [21]: 25.58 g | Time [22]: 14 days | Activity [23]: 1.55 kg | Activity [24]: 0.21%
